# Measured values published in paper PMC5062570 (Nature Communications, 2016).
# Where two headings read alike, the source gives them in different places.
# Assays:
# BACE2 = molecular target: T1, BACE2 (Homo sapiens, UniProt Q9Y5Z0); assay: BACE2 purified enzyme fluorescence polarization assay; assay type: biochemical; settings: purified human enzyme, fluorescence polarization
# T1 construct: purchased R&D Systems 4097-AS
# T1 sequence (Q9Y5Z0 63-518): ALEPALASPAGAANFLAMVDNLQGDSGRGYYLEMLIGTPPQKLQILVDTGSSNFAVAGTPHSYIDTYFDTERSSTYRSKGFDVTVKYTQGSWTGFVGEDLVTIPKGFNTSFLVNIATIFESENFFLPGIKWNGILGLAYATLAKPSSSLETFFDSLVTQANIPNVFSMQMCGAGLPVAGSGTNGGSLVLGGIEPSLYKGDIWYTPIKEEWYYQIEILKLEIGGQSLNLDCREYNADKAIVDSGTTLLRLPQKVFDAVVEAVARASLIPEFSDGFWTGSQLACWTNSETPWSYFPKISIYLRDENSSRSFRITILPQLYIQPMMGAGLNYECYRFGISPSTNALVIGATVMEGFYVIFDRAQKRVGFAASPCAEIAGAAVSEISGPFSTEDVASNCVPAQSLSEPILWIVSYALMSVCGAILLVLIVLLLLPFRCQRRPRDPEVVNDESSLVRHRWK
# Description: (§1) Purified enzyme inhibition of BACE1, BACE2, CatD and CatE was determined using fluorescence polarization (FP) assays. Briefly, purified enzymes were treated with test compounds (1% DMSO, 37 °C) in the presence of synthetic peptide substrates (150 nM) in 30 μl total volume of NaOAc buffer (100 mM, pH 4.5, 0.0001% Tween-20) in a 384-well plate. After incubation, reactions were stopped and substrate captured by the addition of 1.5 μM streptavidin, and FP measured with an EnVision plate reader (PerkinElmer, excitation 485 nm, emission 530 nm). […] BACE2 activity was assessed with 0.5 nM recombinant BACE2 (R&D Systems 4097-AS) and the same synthetic substrate used for BACE1, with a 1 h incubation time. […] CatE activity was assessed with 1.0 nM recombinant CatE (Creative BioMart CTSE-255H) and the same synthetic substrate used for CatD, with a 1.5 h incubation time.
# [1] = pKa determination by multiplexed capillary electrophoresis; assay type: physicochemical; settings: aqueous buffers
# Outline: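 Effective mobility relative to a DMSO neutral marker was measured by multiplexed capillary electrophoresis with UV detection at 24 points across pH 1.7–11.2 in aqueous buffers. pKa was taken from ionization curves of mobility versus pH; method average absolute error 0.12.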
# [2] = Plasma exposure (average unbound plasma concentration) in rats; assay type: in vivo, rat; settings: for Exposure: rat exploratory toxicology studies; for Avg Cp,u metabolite: active metabolite of the dosed compound
# BACE1 [3] = molecular target: T2, BACE1 (Homo sapiens, UniProt P56817); assay: BACE1 purified enzyme fluorescence polarization assay; assay type: biochemical; design: His (C); made in house; host or cells: CHO-K1; settings: purified human enzyme, fluorescence polarization, peptide substrate
# Description: as §1
# Target sequence in this assay (P56817 46-457): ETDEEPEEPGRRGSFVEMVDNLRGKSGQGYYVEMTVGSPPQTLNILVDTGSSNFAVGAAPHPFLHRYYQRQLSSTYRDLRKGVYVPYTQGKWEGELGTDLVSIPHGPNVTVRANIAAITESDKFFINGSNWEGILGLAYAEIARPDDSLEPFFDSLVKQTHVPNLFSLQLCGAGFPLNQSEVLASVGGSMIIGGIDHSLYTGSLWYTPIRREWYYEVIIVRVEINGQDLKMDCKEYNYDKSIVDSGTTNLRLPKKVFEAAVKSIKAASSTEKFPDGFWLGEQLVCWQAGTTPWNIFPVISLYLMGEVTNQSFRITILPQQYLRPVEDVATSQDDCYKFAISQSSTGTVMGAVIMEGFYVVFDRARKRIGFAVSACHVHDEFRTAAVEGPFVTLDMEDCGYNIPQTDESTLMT
# BACE1 [4] = molecular target: T2, BACE1; assay: BACE1 biochemical cellular assay (sAPPβ ELISA in H4 cells overexpressing APP695); assay type: cell-based; design: endogenous in cells; host or cells: H4 human neuroglioma cells overexpressing human APP695; settings: for BACE1 potency increase in live cells: BACE1 enzyme IC50 versus BACE1 cellular IC50; for IC50: sAPPβ ELISA, H4 neuroglioma cells with human wild-type APP
# Description: Cellular inhibition of BACE1 was determined by measuring sAPPβ, the primary cleavage product of BACE-1, in H4 human neuroglioma cells overexpressing the wild-type human APP695. […] The colorimetric reaction was read by an EnVision plate reader (PerkinElmer).
# Target sequence in this assay (P56817 46-501): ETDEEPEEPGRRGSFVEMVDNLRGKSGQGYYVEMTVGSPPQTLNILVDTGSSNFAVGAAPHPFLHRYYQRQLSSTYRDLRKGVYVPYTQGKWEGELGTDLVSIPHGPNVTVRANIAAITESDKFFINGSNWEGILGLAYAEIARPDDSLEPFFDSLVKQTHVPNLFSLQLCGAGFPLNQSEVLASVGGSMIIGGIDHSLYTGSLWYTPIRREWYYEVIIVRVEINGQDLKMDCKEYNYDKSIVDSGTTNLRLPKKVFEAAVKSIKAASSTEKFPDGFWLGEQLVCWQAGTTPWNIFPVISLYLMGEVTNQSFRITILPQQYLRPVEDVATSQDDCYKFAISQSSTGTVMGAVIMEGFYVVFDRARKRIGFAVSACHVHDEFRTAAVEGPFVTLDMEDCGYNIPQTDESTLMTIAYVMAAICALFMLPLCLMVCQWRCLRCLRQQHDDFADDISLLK
SMILES,IC50 (BACE2) [nM],pKa [1],"concentration at 14 days ([2]; Wistar Han, oral, rat, 14 days, 30 mg kg-1 once daily, average unbound plasma concentration, read-out: Avg Cp,u parent) [nM]",Exposure [2],IC50 (BACE1 [3]) [nM],BACE1 potency increase in live cells (BACE1 [4]) [x],IC50 (BACE1 [4]) [nM],"Avg Cp,u metabolite ([2]; rat, 14 days, 15 mg kg-1 once daily) [nM]","concentration at 29 days ([2]; rat, 14 days, 15 mg kg-1 once daily, average unbound plasma concentration, read-out: Avg Cp,u parent) [nM]","Avg Cp,u metabolite ([2]; rat, 14 days, 40 mg kg-1 once daily) [nM]","concentration at 29 days ([2]; rat, 14 days, 40 mg kg-1 once daily, average unbound plasma concentration, read-out: Avg Cp,u parent) [nM]","Avg Cp,u metabolite ([2]; rat, 14 days, 90 mg kg-1 once daily) [nM]","concentration at 29 days ([2]; rat, 14 days, 90 mg kg-1 once daily, average unbound plasma concentration, read-out: Avg Cp,u parent) [nM]","Avg Cp,u metabolite ([2]; rat, 14 days, 200 mg kg-1 once daily) [nM]","concentration at 29 days ([2]; rat, 14 days, 200 mg kg-1 once daily, average unbound plasma concentration, read-out: Avg Cp,u parent) [nM]"
Cc1cc([C@H]2C[C@H]3[C@@H](C)SC(N)=N[C@@]3(c3ccc(F)cc3F)CO2)on1 [PF-9283],140,7.7,29,unexpectedly low exposures,74,12,6,–,–,–,–,–,–,–,–
Cc1cc([C@H]2C[C@H]3[C@@H](CF)SC(N)=N[C@@]3(c3ccc(F)cc3F)CO2)on1 [PF-3195],150,7.0,–,unexpectedly low exposures,62,4.1,15,460,5.4,2570,58,6350,232,17300,1790
